# Where a name gives a salt, the structure may show the parent alone. Read-outs that look alike come from different tables or passages of the source.
# Target: purified human Factor XIa (Homo sapiens (Human), UniProt P03951)
# Experiment: Factor XIa enzyme inhibition assay (chromogenic substrate S-2366)
# [1] = read-out: Factor XIa Ki, measured at 25° C.
# [2] = read-out: Factor XIa Ki, measured at 25° C., TFA salt
# Procedure: The effectiveness of compounds of the present invention as inhibitors of the coagulation Factors XIa, VIIa, IXa, Xa, XIIa, plasma kallikrein or thrombin, can be determined using a relevant purified serine protease, respectively, and an appropriate synthetic substrate. The rate of hydrolysis of the chromogenic or fluorogenic substrate by the relevant serine protease was measured both in the absence and presence of compounds of the present invention. […] A decrease in the rate of absorbance or fluorescence change in the presence of inhibitor is indicative of enzyme inhibition. […] The results of this assay are expressed as the inhibitory constant, Ki.
# Values of Ki were determined by allowing the protease to react with the substrate in the presence of the inhibitor.
# purified human Factor XIa, sequence (P03951 388-625): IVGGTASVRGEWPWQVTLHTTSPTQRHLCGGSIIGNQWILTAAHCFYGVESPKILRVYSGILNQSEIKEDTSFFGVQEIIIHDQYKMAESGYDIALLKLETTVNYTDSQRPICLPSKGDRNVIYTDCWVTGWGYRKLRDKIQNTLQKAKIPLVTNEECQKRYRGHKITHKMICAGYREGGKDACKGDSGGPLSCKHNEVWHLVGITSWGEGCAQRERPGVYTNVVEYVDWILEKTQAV
# purified human Factor XIa, sequence (P03951 19-387 partner): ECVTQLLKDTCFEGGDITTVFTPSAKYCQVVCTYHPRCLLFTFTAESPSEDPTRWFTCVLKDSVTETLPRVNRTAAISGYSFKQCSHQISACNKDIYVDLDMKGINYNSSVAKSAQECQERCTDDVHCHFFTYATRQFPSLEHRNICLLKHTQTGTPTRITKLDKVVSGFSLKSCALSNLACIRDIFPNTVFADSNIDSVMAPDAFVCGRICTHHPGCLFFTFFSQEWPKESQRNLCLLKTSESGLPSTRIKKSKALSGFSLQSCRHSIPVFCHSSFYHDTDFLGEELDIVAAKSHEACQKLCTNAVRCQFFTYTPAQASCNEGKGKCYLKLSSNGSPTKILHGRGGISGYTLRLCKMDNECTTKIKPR
Structure (SMILES),Ki [1] [nM],other results
"Cn1ncc2ccc(-c3cccc4c3CCN(C(=O)c3cn(-c5cccc(Cl)c5F)nn3)C4C(=O)Nc3ccc(C(=O)O)cc3)cc21 (stereo not drawn) [Example 170, 4-(2-(1-(3-chloro-2-fluorophenyl)-1H-1,2,3-triazole-4-carbonyl)-5-(1-methyl-1H-indazol-6-yl)-1,2,3,4-tetrahydroisoquinoline-1-carboxamido)benzoic acid]",< 5,–
"Cc1nnc(-c2cccc(-c3cccc4c3CCN(C(=O)c3cn(-c5cccc(Cl)c5F)nn3)C4C(=O)Nc3ccc(C(=O)O)cc3)c2)o1 (stereo not drawn) [Example 171, 4-(2-(1-(3-chloro-2-fluorophenyl)-1H-1,2,3-triazole-4-carbonyl)-5-(3-(5-methyl-1,3,4-oxadiazol-2-yl)phenyl)-1,2,3,4-tetrahydroisoquinoline-1-carboxamido)benzoic acid]",< 5,–
"CN(C)c1ccc(-c2cccc3c2CCN(C(=O)c2cn(-c4cccc(Cl)c4F)nn2)C3C(=O)Nc2ccc(C(=O)O)cc2)cn1 (stereo not drawn) [Example 172, 4-(2-(1-(3-chloro-2-fluorophenyl)-1H-1,2,3-triazole-4-carbonyl)-5-(6-(dimethylamino)pyridin-3-yl)-1,2,3,4-tetrahydroisoquinoline-1-carboxamido)benzoic acid]",< 5,–
"NCc1cccc(-c2cccc3c2CCN(C(=O)c2cn(-c4cccc(Cl)c4F)nn2)C3C(=O)Nc2ccc(C(=O)O)cc2)c1 (stereo not drawn) [Example 173, 4-(5-(3-(aminomethyl)phenyl)-2-(1-(3-chloro-2-fluorophenyl)-1H-1,2,3-triazole-4-carbonyl)-1,2,3,4-tetrahydroisoquinoline-1-carboxamido)benzoic acid, TFA salt]",< 5,–
"O=C(O)c1ccc(NC(=O)C2c3cccc(-c4ccc5nccnc5c4)c3CCN2C(=O)c2cn(-c3cccc(Cl)c3F)nn2)cc1 (stereo not drawn) [Example 174, 4-(2-(1-(3-chloro-2-fluorophenyl)-1H-1,2,3-triazole-4-carbonyl)-5-(quinoxalin-6-yl)-1,2,3,4-tetrahydroisoquinoline-1-carboxamido)benzoic acid]",< 5,–
"O=C(O)c1ccc(NC(=O)C2c3cccc(-c4ccc5occc(=O)c5c4)c3CCN2C(=O)c2cn(-c3cccc(Cl)c3F)nn2)cc1 (stereo not drawn) [Example 175, 4-(2-(1-(3-chloro-2-fluorophenyl)-1H-1,2,3-triazole-4-carbonyl)-5-(4-oxo-4H-chromen-6-yl)-1,2,3,4-tetrahydroisoquinoline-1-carboxamido)benzoic acid]",< 5,–
"O=C(O)c1ccc(NC(=O)C2c3cccc(-c4ccc(S(=O)(=O)NC5CC5)cc4)c3CCN2C(=O)c2cn(-c3cccc(Cl)c3F)nn2)cc1 (stereo not drawn) [Example 176, 4-(2-(1-(3-chloro-2-fluorophenyl)-1H-1,2,3-triazole-4-carbonyl)-5-(4-(N-cyclopropylsulfamoyl)phenyl)-1,2,3,4-tetrahydroisoquinoline-1-carboxamido)benzoic acid]",< 5,–
"CN(C)S(=O)(=O)c1cccc(-c2cccc3c2CCN(C(=O)c2cn(-c4cccc(Cl)c4F)nn2)C3C(=O)Nc2ccc(C(=O)O)cc2)c1 (stereo not drawn) [Example 177, 4-(2-(1-(3-chloro-2-fluorophenyl)-1H-1,2,3-triazole-4-carbonyl)-5-(3-(N,N-dimethylsulfamoyl)phenyl)-1,2,3,4-tetrahydroisoquinoline-1-carboxamido)benzoic acid]",< 5,–
"CCOc1ccc(-c2cccc3c2CCN(C(=O)c2cn(-c4cccc(Cl)c4F)nn2)C3C(=O)Nc2ccc(C(=O)O)cc2)cn1 (stereo not drawn) [Example 178, 4-(2-(1-(3-chloro-2-fluorophenyl)-1H-1,2,3-triazole-4-carbonyl)-5-(6-ethoxypyridin-3-yl)-1,2,3,4-tetrahydroisoquinoline-1-carboxamido)benzoic acid, TFA salt]",< 5,–
"O=C(O)c1ccc(NC(=O)C2c3cccc(-c4ccccc4CN4CCOCC4)c3CCN2C(=O)c2cn(-c3cccc(Cl)c3F)nn2)cc1 (stereo not drawn) [Example 179, 4-(2-(1-(3-chloro-2-fluorophenyl)-1H-1,2,3-triazole-4-carbonyl)-5-(2-(morpholinomethyl)phenyl)-1,2,3,4-tetrahydroisoquinoline-1-carboxamido)benzoic acid, TFA salt]",5.92,–
"COc1cccc(-c2cccc3c2CCN(C(=O)c2cn(-c4cccc(Cl)c4F)nn2)C3C(=O)Nc2ccc(C(=O)O)cc2)c1F (stereo not drawn) [Example 180, 4-(2-(1-(3-chloro-2-fluorophenyl)-1H-1,2,3-triazole-4-carbonyl)-5-(2-fluoro-3-methoxyphenyl)-1,2,3,4-tetrahydroisoquinoline-1-carboxamido)benzoic acid]",–,Ki: 5.2 nM
"O=C(O)c1ccc(NC(=O)C2c3cccc(-c4cnc5[nH]ccc5c4)c3CCN2C(=O)c2cn(-c3cccc(Cl)c3F)nn2)cc1 (stereo not drawn) [Example 181, 4-(2-(1-(3-chloro-2-fluorophenyl)-1H-1,2,3-triazole-4-carbonyl)-5-(1H-pyrrolo[2,3-b]pyridin-5-yl)-1,2,3,4-tetrahydroisoquinoline-1-carboxamido)benzoic acid, TFA salt]",< 5,–
"N#Cc1ccc(-c2cccc3c2CCN(C(=O)c2cn(-c4cccc(Cl)c4F)nn2)C3C(=O)Nc2ccc(C(=O)O)cc2)cn1 (stereo not drawn) [Example 182, 4-(2-(1-(3-chloro-2-fluorophenyl)-1H-1,2,3-triazole-4-carbonyl)-5-(6-cyanopyridin-3-yl)-1,2,3,4-tetrahydroisoquinoline-1-carboxamido)benzoic acid, TFA salt]",< 5,–
"CN(C)c1ncc(-c2cccc3c2CCN(C(=O)c2cn(-c4cccc(Cl)c4F)nn2)C3C(=O)Nc2ccc(C(=O)O)cc2)cn1 (stereo not drawn) [Example 183, 4-(2-(1-(3-chloro-2-fluorophenyl)-1H-1,2,3-triazole-4-carbonyl)-5-(2-(dimethylamino)pyrimidin-5-yl)-1,2,3,4-tetrahydroisoquinoline-1-carboxamido)benzoic acid]",< 5,–
"O=C(O)c1ccc(NC(=O)C2c3cccc(-c4ccc(F)c(C(=O)N5CCCC5)c4)c3CCN2C(=O)c2cn(-c3cccc(Cl)c3F)nn2)cc1 (stereo not drawn) [Example 184, 4-(2-(1-(3-chloro-2-fluorophenyl)-1H-1,2,3-triazole-4-carbonyl)-5-(4-fluoro-3-(pyrrolidine-1-carbonyl)phenyl)-1,2,3,4-tetrahydroisoquinoline-1-carboxamido)benzoic acid]",< 5,–
"O=C(O)c1ccc(NC(=O)C2c3cccc(-c4ccncc4)c3CCN2C(=O)c2cn(-c3cccc(Cl)c3F)nn2)cc1 (stereo not drawn) [Example 186, 4-(2-(1-(3-chloro-2-fluorophenyl)-1H-1,2,3-triazole-4-carbonyl)-5-(pyridin-4-yl)-1,2,3,4-tetrahydroisoquinoline-1-carboxamido)benzoic acid, TFA salt]",< 5,–
"O=C(O)c1ccc(NC(=O)C2c3cccc(C4=CCNCC4)c3CCN2C(=O)c2cn(-c3cccc(Cl)c3F)nn2)cc1 (stereo not drawn) [Example 187, 4-(2-(1-(3-chloro-2-fluorophenyl)-1H-1,2,3-triazole-4-carbonyl)-5-(1,2,3,6-tetrahydropyridin-4-yl)-1,2,3,4-tetrahydroisoquinoline-1-carboxamido)benzoic acid]",< 5,–
"NC(=O)Cc1cccc(-c2cccc3c2CCN(C(=O)c2cn(-c4cccc(Cl)c4F)nn2)C3C(=O)Nc2ccc(C(=O)O)cc2)c1 (stereo not drawn) [Example 188, 4-(5-(3-(2-amino-2-oxoethyl)phenyl)-2-(1-(3-chloro-2-fluorophenyl)-1H-1,2,3-triazole-4-carbonyl)-1,2,3,4-tetrahydroisoquinoline-1-carboxamido)benzoic acid]",< 5,–
"O=C(O)c1ccc(NC(=O)C2c3cccc(N4CCC(N5CCCC5)CC4)c3CCN2C(=O)c2cn(-c3cccc(Cl)c3F)nn2)cc1 (stereo not drawn) [Example 210, 4-(2-(1-(3-chloro-2-fluorophenyl)-1H-1,2,3-triazole-4-carbonyl)-5-(4-(pyrrolidin-1-yl)piperidin-1-yl)-1,2,3,4-tetrahydroisoquinoline-1-carboxamido)benzoic acid, 2 TFA salt]",< 5,–
"O=C(O)c1ccc(NC(=O)[C@@H]2c3cccc(N4CCN(C5COC5)CC4)c3CCN2C(=O)[C@H]2CC(c3cccc(Cl)c3F)=NO2)cc1 [Example 227, 4-((S)-2-((R)-3-(3-Chloro-2-fluorophenyl)-4,5-dihydroisoxazole-5-carbonyl)-5-(4-(oxetan-3-yl)piperazin-1-yl)-1,2,3,4-tetrahydroisoquinoline-1-carboxamido)benzoic acid, 2 TFA salt]",< 5,–
"O=C(O)c1ccc(NC(=O)[C@H]2c3cccc(N4CCN(C5COC5)CC4)c3CCN2C(=O)[C@H]2CC(c3cccc(Cl)c3F)=NO2)cc1 [Example 228, 4-((R)-2-((R)-3-(3-Chloro-2-fluorophenyl)-4,5-dihydroisoxazole-5-carbonyl)-5-(4-(oxetan-3-yl)piperazin-1-yl)-1,2,3,4-tetrahydroisoquinoline-1-carboxamido)benzoic acid, 2 TFA salt]",< 5,–
"COC1CCN(c2cccc3c2CCN(C(=O)C2CCN(c4cccc(Cl)c4)C2)C3C(=O)Nc2ccc(C(=O)O)cc2)CC1 (stereo not drawn) [Example 258, 4-(2-(1-(3-chlorophenyl)pyrrolidine-3-carbonyl)-5-(4-methoxypiperidin-1-yl)-1,2,3,4-tetrahydroisoquinoline-1-carboxamido)benzoic acid, TFA salt]",–,Ki [2]: 127 nM
"COC1CCN(c2cccc3c2CCN(C(=O)C2CCN(c4cccc(Cl)c4)C2)C3C(=O)Nc2ccc(C(=O)O)cc2)CC1 (stereo not drawn) [Example 261, 4-(2-(1-(3-chlorophenyl)pyrrolidine-3-carbonyl)-5-(4-methoxypiperidin-1-yl)-1,2,3,4-tetrahydroisoquinoline-1-carboxamido)benzoic acid, TFA salt]",–,Ki [2]: 948 nM
"O=C(O)c1ccc(NC(=O)[C@@H]2c3cccc(N4CCOCC4=O)c3CCN2C(=O)[C@H]2CC(c3cccc(Cl)c3F)=NO2)cc1 [Example 289, 4-((S)-2-((R)-3-(3-chloro-2-fluorophenyl)-4,5-dihydroisoxazole-5-carbonyl)-5-(3-oxomorpholino)-1,2,3,4-tetrahydroisoquinoline-1-carboxamido)benzoic acid,]",< 5,–
